# Measured values: paper PMC12027702, “Evaluation of Tyrosinase Inhibitory Activity of Carbathioamidopyrazoles and Their Potential Application in Cosmetic Products and Melanoma Treatment” (International Journal of Molecular Sciences, 2025)
# Target: T1, mushroom tyrosinase
# T1 construct: gene PPO3; PDB 2Y9X is only the docking model
# Assay: Dixon plot, L-DOPA oxidation, absorbance at […] nm
# Type: biochemical
# Settings: L-DOPA substrate, phosphate buffer pH 6.88, 20 °C, 20 min preincubation, 10% DMSO; competitive
row,Ki [µM],SMILES
1,14.6,"Cc1cc(C)n(C(N)=S)n1 [compound 1, 1-[amino(thioxo)methyl]-3,5-dimethyl-1Hpyrazole]"
2,7.88,"Cc1cc(O)n(C(N)=S)n1 [compound 4, 1-[amino(thioxo)methyl]-5-hydroxy-3-methyl-1H-pyrazole]"
3,118,"NC(=S)n1nc(-c2ccccc2)cc1O [compound 3, 1-[amino(thioxo)methyl]-5-hydroxy-3-phenyl-1Hpyrazole]"
4,64.4,"CCc1cc(CC)n(C(N)=S)n1 [compound 2, 1-[amino(thioxo)methyl]-3,5-diethyl-1Hpyrazole]"
